Patent publication US8563588B2, “Imidazolone derivatives, method for the preparation thereof and biological applications” (Universite de Rennes 1, priority 2007, dated 2013)

Target: Rat recombinant DYRK1A (Rattus norvegicus, UniProt Q63470)
Assay: Assaying of the kinase activity of DYRK1A (33P-ATP, myelin basic protein, P81 filter);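 note: GST fusion rat DYRK1A made in E. coli, scintillation counting of label bound to substrate, activity as percent of the inhibitor-free maximum after blank subtraction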
Type: biochemical
Settings: 15 μM ATP, 30° C., 30 min; read-out: IC50 DYRK1A

IC50 | Compound
0.65 µM | COCCSC1=N/C(=C\c2ccc3c(c2)OCO3)C(=O)N1 [ST164]
> 10 µM | CCSC1=N/C(=C\c2ccc(O)c(OC)c2)C(=O)N1C [ST170]
> 10 µM | COc1cc(/C=C2\NC(=S)NC2=O)ccc1O [ST202]
0.17 µM | N#CCSC1=N/C(=C\c2ccc3c(c2)OCO3)C(=O)N1 [ST209]
0.47 µM | CN1C(=O)/C(=C/c2ccc3c(c2)OCO3)N=C1SCC#N [ST211]
> 10 µM | CN1C(=O)/C(=C/c2ccc3c(c2)OCO3)NC1=S [ST223]
66 µM | O=C1NC(=S)N/C1=C\c1ccc(O)c(O)c1 [ST227]
65 µM | COc1cc(/C=C2\NC(=S)NC2=O)cc(Br)c1O [ST229]
2.6 µM | CCSC1=N/C(=C\c2ccc(O)c(OC)c2)C(=O)N1 [ST240]
> 10 µM | O=C1NC(=S)N/C1=C\c1cc(Br)c2c(c1)OCO2 [ST279]
> 10 µM | CCSC1=N/C(=C\c2cc(Br)c3c(c2)OCO3)C(=O)N1 [ST280]
> 10 µM | CCSC1=N/C(=C\c2ccc(O)c(O)c2)C(=O)N1 [ST286]
0.17 µM | COc1cc(/C=C2\N=C(N)NC2=O)ccc1O [ST325]
> 10 µM | NC1=N/C(=C\c2ccc(O)c(O)c2)C(=O)N1 [ST326]
> 10 µM | CN1C(=O)/C(=C/c2cc(Br)c3c(c2)OCO3)NC1=S [ST341]
> 10 µM | CCSC1=N/C(=C\c2cc(Br)c3c(c2)OCO3)C(=O)N1C [ST342]

Compound | IC50
O=C1NC(=S)N/C1=C\c1c[nH]c2ccccc12 [ST195] | > 10 µM
CN1C(=O)C(=Cc2c[nH]c3ccccc23)NC1=S [ST197] | > 10 µM
